Each structure is given as a SMILES string.

The test system of assay [1] is aptamer-regulatable control line. Briefly: Growth inhibition of aptamer-regulatable control line (luciferase, 72 h). The class given is cell-based, Plasmodium falciparum. Here is the method: 677 parasites using CRISPR-Cas9 and homology-driven repair (55, 56). A line harbourbing an aptamer-
678 regulatable fluorescent protein (eYFP) integrated in the cg6 locus is used as the control (55). […]
696 Stock solutions of ML901, DHA or borrelidin (Cayman Chemicals) were dispensed into 96-well U-bottom
697 BD Falcon™ plates and serially diluted in complete medium to yield final concentrations ranging from 20-
698 0.08 nM. Synchronous ring-stage YRScyt conditional knockdown line and the aptamer-regulatable control
699 line in varying aTc concentrations (high = 50 or 500 nM, low = 1 nM, and no aTc) were distributed into
(§1) 700 the drug plate. Lowest drug treatment and a lethal dose of chloroquine (200 nM) served as reference
701 controls. Growth inhibition was analysed after 72 h using the Renilla-Glo(R) Luciferase Assay System (ref
702 no E2750 Promega) and the GloMax® Discover Multimode Microplate Reader (Promega), and IC50 values
703 were obtained from corrected dose-response curves using GraphPad Prism (version 8; GraphPad Software). […]
706 CRISPR/Cas9 was used to generate parasites encoding the S234C mutation in exon 2 of PfYRS, as shown
707 in Suppl Figure 6. Two guide RNAs (gRNA1: […] and gRNA2:
708 […]) were selected using Benchling (benchling.com), and cloned into the
709 pDC2-coCas9-gRNA plasmid essentially as described previously (58). A donor template of 645 bp, […]

In assay [2] the test system is eIF2α phosphorylation in P. falciparum. Nature of the assay: Western blot for phosphorylated-eIF2α. It is filed as cell-based, Plasmodium falciparum. The protocol:
Synchronous ring-stage YRScyt conditional knockdown line and the aptamer-regulatable control
as §1
Two guide RNAs (gRNA1: […] and gRNA2:
Ring-stage P. falciparum parasites (Dd2 strain) at 10%
Using a modification of a published procedure (14), the
722 cells were labelled with O-propargyl-puromycin (OPP; 4 µM) for 1 h, washed 3x (PBS +3% serum) and
Flow cytometry was performed
730 hematocrit and 5% parasitemia. The RBC pellet was washed 3 x in PBS + cOmplete. Cells were centrifuged
The wash with PBS + cOmplete and
The pellet was resuspended in Bolt LDS sample
The samples were vortexed for 10 min at room temperature.
Secondary antibodies: goat
740 anti-rabbit IgG-peroxidase (Sigma-Aldrich-A0545; 1:20 000), goat anti-mouse IgG-peroxidase (Chemicon-
Chemiluminescence was detected using the Bio-Rad ChemiDocTM MP imaging
For the human mature YRS construct,
The YRS sequences were codon optimized for E. coli,
The vector was transformed into
PfYRS, PfYRSS234C and HsYRS were induced
Cell pellets were resuspended in 40 mL lysis
Cells were lysed by sonication (Microtip, QSonica)
The supernatant was applied to a 5
757 mL HisTrap HP column (GE Healthcare) and washed with 50 mL binding buffer containing 50 mM Tris-
His-YRS was eluted using a 0-500 mM
The eluted His-YRS was dialyzed overnight at 4°C
760 against 50 mM Tris-HCl, pH 8, 500 mM NaCl, 30 mM imidazole, 1 mM TCEP with the addition of His-
Cleaved His tags from His-YRS and TEV
YRS was further purified by gel filtration using a HiLoad 16/600 Superdex 200 column (GE

On to `Nc1ncnc2c1c(OC(F)F)nn2[C@@H]1O[C@H](COS(N)(=O)=O)[C@@H](O)[C@H]1O` [ML901], for which the “Fold change in IC50 (high aTc/ no aTc), control line” value in assay [1] is given as “no change”. For the same molecule, the 50% inhibitory concentration (IC50) in assay [1] (Plasmodium falciparum, read-out: IC50 against control line) turned out to be 2.4 ± 0.2 nM. The eIF2α phosphorylation result was “does not result in eIF2α phosphorylation” in assay [2] (eIK1 knockout parasites) and “triggers eIF2α phosphorylation” in assay [2] (wildtype P. falciparum cultures).

Values taken from publication PMC7613620, “Reaction hijacking of tyrosine tRNA synthetase as a whole-of-life-cycle antimalarial strategy” (Science (New York, N.Y.), 2022).
